# Measurements: patent US20240101685A1, “NEAR INFRARED PHOTOIMMUNOTHERAPY (NIR-PIT) COMBINATION THERAPY TO TREAT CANCER” (THE UNITED STATES OF AMERICA, as represented by the …, priority 2021, published 2024)
# Key:
# [1] = IR700 at 689 nm; Photofrin 630 nm; Foscan 652 nm; NPe6/Laserphyrin 654 nm; cited from earlier work
# [2] = system: LL/2-luc tumors; assay: CD44-targeted NIR-PIT with or without L-NaAA; format: in vivo, C57BL/6 mice
# From the text: (§1) The images were taken pre- and post-NIR-PIT. ROIs were placed on the tumor. […] ROIs were placed over the entire tumor.
# [3] = system: MOC2-luc tumors; assay: CD44-targeted NIR-PIT with or without L-NaAA
# Procedure: (§2) The APC was injected 6 days after inoculation of cancer cells into C57BL/6 mice. […] NIR light (690 nm, 150 mW cm-2, 50 J cm-2) was exposed on the next day. […] Upon NIR light exposure, the normal tissue adjacent to the tumor was covered with aluminum foil to ensure that the NIR light exposure is limited in tumor site. Dorsal fluorescence images of IR700 were obtained with the 700 nm fluorescence channel of the Pearl Imager (LI-COR Biosciences). The images were taken pre- and post-NIR-PIT. ROIs were placed on the tumor. The dorsal edema formation of treated mouse 1 day after NIR light irradiation was imaged by a camera. Acute treatment efficacy was evaluated with BLI analysis, in which, D-luciferin (3 mg mouse-1; Gold Biotechnology) was intraperitoneally injected into mice. Luciferase activity was analyzed with a BLI system (Biospace Lab) using relative light units. ROIs were placed over the entire tumor. The counts per minute of relative light units were calculated using M3 Vision Software (Biospace Lab) and converted to the percentage based on those before NIR-PIT using the following formula: [(relative light units after treatment)/(relative light units before treatment)×100(%)]. Bioluminescence im-ages were continually recorded until the onset of depilation-induced skin pigmentation precluded accurate measurement.
# [4] = system: MC38-luc tumor; assay: In vivo efficacy of L-NaAA alone; design: species or system mice
# From the text: (C) Luciferase activity calculated from BLI (n=10, mean±SEM; repeated measures two-way ANOVA followed by Tukey's test; N.S., not significant).
# [5] = system: A431 GFP-luc tumor; assay: Panitumumab NIR-PIT with or without L-NaAA; format: in vivo, athymic mice; settings: with L-NaAA
# From the text: as §1
# [6] = system: MC38-luc tumors; assay: CD44-targeted NIR-PIT with or without L-NaAA
# Procedure: Photon counts were evaluated with the Photon Imager (Biospace Lab) using relative light units. ROIs were placed over the entire tumor. The counts per minute of relative light units were calculated using M3 Vision Software (Biospace Lab) and converted to the percentage based on those before NIR-PIT using the following formula: [(relative light units after treatment)/(relative light units before treatment)×100(%)]. Chemiluminescent images were continually recorded 1 and 3 hours after NIR-PIT.
# as §2
# Under pentobarbital anesthesia, MRI was performed on a 3-T scanner using an in-house 10-inch circle shaped mouse receiver coil array (Elition 3T; Philips Medical Systems, Best, Nether-lands) 1 day after NIR light exposure. Scout images were obtained to accurately locate the tumor. All mice underwent T2-weighted fat-saturation imaging (T2WI fat-sat) and short-TI inversion recovery imaging (STIR). All images were obtained in the coronal plane and T2WI fat-sat images were also obtained in the axial plane. All images were analyzed using Image J software, and 3D imaging were recon-structed. The high signal intensity area derived from each image in T2WI fat-sat and STIR was calculated by Image J.
# [7] = system: MC38-luc tumors
# Procedure: ROIs were placed over the entire tumor. […] (A) Treatment schedule.
# as §1
# Scout images were obtained to accurately locate the tumor.
# Single-cell suspensions from tumor samples were pre-pared using following protocol. Whole tumors were incubated in the RPMI 1640 medium (Thermo Fisher Scientific) containing collagenase type IV (1 mg mL^−1; Thermo Fisher Scientific) and DNase I (20 μg mL^−1; Millipore Sigma, Burlington, MA) in 37° C. for 30 minutes, then gently cut with scissors and mashed with the back of the plunger of 3 mL syringe. The tissues were passed through a 70 μm cell strainer (Corning, Corning, NY). A total of 3.0×10^6 cells was stained and data for 5.0×10^5 cells were collected for each tumor. The cells were stained with anti-CTLA4 antibody (Clone; UC10-4B9) from Thermo Fisher Scientific. To distinguish live cells from dead cells, cells were also stained with LIVE/DEAD Fixable Dead Cell Stain (Thermo Fisher Scientific). The fluorescence of the cells was then analyzed with the flow cytometer (FACSLyric, BD Biosciences) and FlowJo software (FlowJo LLC). Dead cells were removed from analysis based on FSC, SSC, and staining with LIVE/DEAD Fixable Dead Cell Stain.
# [8] = system: MDAMB468 GFP-luc cells; assay: In vitro NIR-PIT with reducing agents, PI staining; settings: 10 mM NaN3
# Procedure: (§3) A431 GFP-luc or MDAMB468 GFP-luc cells (4×10^5) were seeded into 12-well plates, and incubated for 24 hours, and then exposed to media containing panitumumab-IR700 (10 μg mL^−1) for 1 hour at 37° C. […] NIR light (690 nm, 150 mW cm^−2, 1 or 2 J cm^−2 for A431 GFP-luc, 20 J cm^−2 for MDAMB468 GFP-luc) was irradiated to cancer cells. For flow cytometric analyses, the cells were collected with trypsin one hour after NIR light exposure. Cells were then stained with propidium iodide (PI, 1 μg mL^−1) at RT for 5 minutes. The fluorescence of the cells was then analyzed with a flow cytometer (FACSCalibur, BD Biosciences, San Jose, CA, USA) and FlowJo software (BD Biosciences).
# [9] = system: A431 GFP-luc cells; assay: In vitro NIR-PIT with reducing agents, PI staining; settings: for cytotoxicity of Pan-PIT in the presence of NaN3: 10 mM NaN3
# Procedure: as §3
# [10] = IR700 with L-cysteine, NaN3 added
# [11] = Procedure: Before and after each irradiation, the 700 nm fluorescence intensity was acquired by a fluorescence imager (Pearl Imager, LI-COR Bioscience, Lincoln, NE, USA). Pearl Cam Software (LI-COR Biosciences) was used for analyzing fluorescence. The same regions of interest (ROIs) were put on the solution in each tube, and then mean 700 nm fluorescence intensity was measured. The appearance of the tube before and after NIR light irradiation was imaged. All the experiments were carried out at RT.
# [12] = system: LL2-luc tumor; settings: IL15 1 ug i.p. preconditioning + anti-PD-L1-IR700 + NIR light 50 J/cm2
# Procedure: Tumors were established in mice by administration of 5×10^5 LL2 cells s.c. Four days later, IL15 (1 ug i.p.) was administered, followed one day later with anti-PD-L1-IR700 (or vehicle control), followed with or without NIR light (50 J/cm2) another day later.
# [13] = dose of 3 mg/kg for melanoma therapy; cited from earlier work
# [14] = system: mEERL-hEGFR cells; assay: In vitro NIR-PIT, PI staining and MTT assay; format: cell-based, murine
# Procedure: After washing with PBS, phenol-red-free RPMI 1640 medium was added. NIR light (690 nm) was irradiated to cancer cells with an ML7710 laser system (Modulight, Tampere, Finland) at a power density of 150 mW/cm^2. One hour after NIR-PIT, the cells were collected with trypsin, and stained with propidium iodide (PI, 1 μg/mL) at room temperature for 5 minutes, and then assessed for PI positivity on a BD FACSCalibur (BD Biosciences) using CellQuest software (BD Biosciences) using FlowJo software (FlowJo LLC). To assess cell viability, cell proliferation was evaluated by 3-(4,5-Dimethyl-2-thiazolyl)-2,5-diphenyl-2H-tetrazolium bromide (MTT) assay. Cells were incubated and treated, as described above. One hour after NIR-PIT, the medium was removed and 500 μl of MTT reagent (SIGMA Aldrich; 0.5 mg/ml) was added to each well. After 1 hour incubation, the supernatant was removed and 500 μL of 2-propanol was added to each well to dissolve the crystal formazan dye. After transferring 100 μL of the supernatant to 96 well plate each, absorbance was measured at 570 nm on a microplate reader (Synergy™ H1). For relative quantification, the value of absorbance in each group was normalized to that in the control group.
# [15] = system: mEERL-hEGFR tumors; assay: Histologic analysis (H-E staining) 1 hour after NIR-PIT; format: in vivo, C57BL/6 mice; settings: tumors harvested 1 hour after light exposure
# From the text: Tumors from mEERL-hEGFR, MC38-luc, and LLC tumors were harvested, formalin-fixed and paraffin-embedded, and sectioned at […]. Following standard hematoxylin and eosin (HE) staining, bright-light photomicrographs were obtained using Mantra Quantitative Pathology Workstation (PerkinElmer).
# [16] = system: mEERL-hEGFR tumors; design: tumor volume: dose or concentration left out as unconfirmed
# Procedure: The lower part of the body of the mice was shaved before NIR light irradiation and image analysis. Tumors were established via subcutaneous injection of 1×10^6 cells in the right or both side of dorsal flank for each model. Mice with tumors reaching approximately 50-100 mm^3 in volume were used for the experiments. Mice were monitored each day, and tumor volume (tumor volume=length×width^2×0.5) was measured twice a week until the tumor volume reached 2,000 mm^3, whereupon the mice were euthanized with inhalation of carbon dioxide gas. In a bilateral model, the mice were euthanized when either tumor reached its humane endpoint. Tumor disappearance for 4 weeks or longer after treatment was defined as complete remission.
# The mixed antibody/APC was injected 6 days after inoculation of cancer cells into C57BL/6 mice. Twenty-four hours after administration, NIR light (690 nm, 150 mW/cm^2) was irradiated to tumors at 50 J/cm^2 in all groups. The surface of the mouse other than the tumor was covered with aluminum foil. […] In the bilateral model, NIR light (690 nm, 150 mW/cm^2) was given only to right-sided tumors at 50 J/cm^2 and the remainder of the mouse (including the left-sided tumor) was covered with aluminum foil during irradiation.
# [17] = CD44-targeted NIR-PIT with L-NaAA
# [18] = with or without L-NaAA injection
# [19] = 1 day after CD44-targeted NIR-PIT
compound,measurement,setting,value
"Oc1cccc(-c2c3nc(c(-c4cccc(O)c4)c4ccc([nH]4)c(-c4cccc(O)c4)c4nc(c(-c5cccc(O)c5)c5ccc2[nH]5)CC4)C=C3)c1 [Foscan®, meta-tetrahydroxyphenylchlorin]",extinction coefficient,[1],22000 M⁻¹ cm⁻¹
"O=C1O[C@H]([C@@H](O)CO)C([O-])=C1O.[Na+] [L-NaAA, L-sodium ascorbate]",body weight,[2]; [17],no significant difference in body weight was detected
same,antitumor effects of CD44-targeted NIR-PIT (BLI),[2]; with L-NaAA,not changed
same,edema formation 1 day after NIR-PIT,[2]; [18],no edema was detected
same,body weight,[3]; [17],no significant difference in body weight was detected
same,antitumor effects of CD44-targeted NIR-PIT (BLI),[3]; with L-NaAA,not changed
same,edema formation 1 day after NIR-PIT,[3]; [18],no edema was detected
same,tumor growth (BLI),[4],not to affect tumor growth
same,efficacy of pan-PIT (BLI),[5],did not affect the efficacy of pan-PIT
same,edema on T2WI fat-sat MRI,[6]; [19],minimal edema was observed just around the treated tumors
same,high signal intensity area on T2WI fat-sat images,[6]; [19],significantly larger in the group treated without L-NaAA
same,ROS (chemiluminescence imaging with L-012),[6]; CD44-targeted NIR-PIT with vs without L-NaAA,significantly lower intensity (lower ROS) on CLI
same,body weight,[6]; NIR-PIT with vs without L-NaAA,No significant difference in body weight
same,edema formation 1 day after NIR-PIT,[6]; [18],no edema was detected
same,edema formation,[7]; 1 day after CTLA4-targeted NIR-PIT,suppressed both macroscopically and by MRI
same,BLI intensity by day 6 post NIR-PIT,"[7]; CTLA4-IR700 50 μg, NIR 50 J cm-2, L-NaAA 80 mg mouse-1 i.p.",no difference was observed between the two groups
same,ROS,[7]; CTLA4-targeted NIR-PIT with vs without L-NaAA,higher ROS was also detected in the NIR-PIT without L-NaAA group
same,body weight the day after NIR-PIT,[7]; NIR-PIT with L-NaAA group,significant lower weight
same,CTLA4hi cells among total live cells,[7]; three hours after CTLA4-targeted NIR-PIT,selectively depleted in both NIR-PIT with and without L-NaAA groups
same,cytotoxicity of Pan-PIT in the presence of NaN3,[8],restored cytotoxicity of Pan-PIT suppressed by NaN3
N[C@@H](CS)C(=O)O [L-cysteine],cytotoxicity of Pan-PIT in the presence of NaN3,[9],could not reverse the effects of NaN3
same,"cytotoxic damage of Pan-PIT, low concentration of reducing agent","[9]; L-NaAA low or pharmacological concentrations, L-cysteine 0.001 mM",slightly enhanced the cytotoxic damage
same,"cytotoxic damage of Pan-PIT, high concentration of reducing agent","[9]; L-NaAA over 1 mM, L-cysteine 0.1 mM or higher",compromised the cytotoxicity
"C=Cc1c(C)c2cc3nc(c(CC(=O)N[C@@H](CC(=O)[O-])C(=O)[O-])c4[nH]c(cc5nc(cc1[nH]2)C(C)=C5CC)c(C)c4C(=O)[O-])[C@@H](CCC(=O)[O-])[C@@H]3C.[Na+].[Na+].[Na+].[Na+] [NPe6/Laserphyrin®, mono-L-aspartylchlorin e6]",extinction coefficient,[1],40000 M⁻¹ cm⁻¹
"[N-]=[N+]=[N-] [NaN3, Sodium azide, reference compound]",ligand cleavage (remaining IR700),[10],ligand cleavage decreased
same,cytotoxicity of Pan-PIT in the presence of NaN3,[9],suppression of NIR-PIT cytotoxicity
"C[Si](C)(CCC[N+](CCCS(=O)(=O)O)(CCCS(=O)(=O)O)CCCS(=O)(=O)O)O[Si]1(O[Si](C)(C)CCC[N+](CCCS(=O)(=O)O)(CCCS(=O)(=O)O)CCCS(=O)(=O)O)n2c3c4ccccc4c2N=C2N=C(N=c4c5ccccc5c(n41)=NC1=NC(=N3)c3ccccc31)c1ccccc12 [Pc 3, Bis{3-[Tris(3-Sulfopropyl)]Ammoniopropyldimethylsilvloxide} Silicon Phthalocyanine]",solubility of Pc 3 after light exposure,[11],dramatically changed its solubility
IL-15: immunoactivator interleukin,survival,[12],increased survival
same,tumor volume,[12],substantially reduced tumor volume
Ipilimumab: anti-CTLA4 antibody,patients with gastrointestinal symptoms (irAE),[13],about 40%
Photofrin®,extinction coefficient,[1],1200 M⁻¹ cm⁻¹
pan-IR700,cancer cell death (incorporation of propidium iodine and MTT assay),"[14]; APC 10 μg/mL 1 h, NIR light 690 nm, read 1 h after NIR-PIT",cancer cell death was induced by NIR-PIT in an NIR light-dose dependent manner
same,"cell viability, APC alone",[14]; without NIR light,Neither NIR light alone nor panitumumab IR700 alone induced significant alterations in cell viability
panitumumab NIR-PIT,histologic change of tumor cells (H-E staining),[15],swelling and vacuolation of the tumor cell
same,tumor volume,"[16]; mixed antibody/APC i.v., NIR light 50 J/cm^2 once 1 day later",not significantly decreased
same,mice in which the tumor was cleared,[16]; n=12-13,1/12
